According to patent US20210137829A1, “TOPICAL DELIVERY SYSTEMS FOR ACTIVE COMPOUNDS” (Yissum Research Development Company of the Hebrew …, priority 2017, published 2021):

Columns and labels:
[1] = Water dilution of the oily phase; type: physicochemical; settings: oily phase loaded with active; un-loaded phase separates above 50 wt % water
Protocol: 2 wt % DCF-Na loaded oily composition which is substantially devoid of water (i.e. a concentrate) was prepared according to the process described above. The un-diluted oily composition was constituted by self-assembled oil-solvated clusters or short domains of surfactants, which differ from the classical reverse micelles. These concentrates are dilutable by any suitable diluent, for example by purified water, to form a diluted delivery system.
It was noted that the oily carrier, i.e. the oily composition without DCF-Na, could not be fully diluted.

[2] = Self-diffusion NMR (SD-NMR); type: physicochemical
Protocol: In order to characterize the structure of the oily domains, self-diffusion NMR (SD-NMR) analysis was carried out. SD-NMR analysis provides an indication on the location of each component within the structure, by calculating the diffusion coefficient of each component in the system.
SD-NMR measurements were performed with a Bruker AVII 500 spectrometer equipped with GREAT 1/10 gradients, a 5 mm BBO and a 5 mm BBI probe, both with a z-gradient coil and with a maximum gradient strength of 0.509 and 0.544 T m^−1, respectively. Diffusion was measured using an asymmetric bipolar longitudinal eddy-current delay (bpLED) experiment, or and asymmetric bipolar stimulated echo (known as one-shot) experiment with convection compensation and an asymmetry factor of 20%, ramping the strongest gradient from 2% to 95% of maximum strength in 32 steps. The spectrum was processed with the Bruker TOPSPIN software. NMR spectra were recorded at 25±0.2° C. The components were identified by their chemical shift in 1H NMR.

- Dilutability of the oily phase with water [1]: fully dilutable up to 90 wt %
- Diffusion coefficient Dx of DCF-Na ([2]; 2 wt % DCF-Na formulation, FIGS. 11A-11B): 0.1×10^−11 m^2/sec
SMILES: O=C([O-])Cc1ccccc1Nc1c(Cl)cccc1Cl.[Na+] [DCF-Na, diclofenac sodium]
- Diffusion coefficient of DCF-Na, gelled vs non-viscosified ([2]; 80 wt % water, 0.75 wt % gellant): lower in the gelled formulation than in the non-viscosified system
